“Also recorded” adds a separate entry of the source. Where two headings read alike, the source gives them in different places.
Columns and labels:
[1] = tested on: Human osteosarcoma tumour cells (Saos-2); assay: Mitotic arrest and apoptosis by phase-contrast microscopy; type: cell-based; details: Saos-2 cells, 1 μM, 48 h
Experimental: Human osteosarcoma tumour cells (Saos-2) were treated with 1 μM of compound 28 for 48 h. […] Compound 28-induced accumulation of mitotic cells was further quantified using mitotic index HitKit (Cellomix).

[2] = tested on: Human lung carcinoma cells (A549); assay: Induction of programmed cell death (cytoplasmic vacuolation); type: cell-based; details: 10 μM, 16 h
Experimental: In addition to the induction of apoptosis some of the compounds of the invention are capable of inducing forms of programmed cell death that is distinct from apoptosis by the criteria of morphology. Human lung carcinoma cells (A549) were treated for 16 h with 10 μM compound 28.

A549 cells = assay: Mitotic index HitKit (Cellomix); type: cell-based, human; details: at a concentration of 4.4 μM, untreated wells […], toxicity above this concentration
Text: The effect of compound 28 on the mitotic index was studied using mitotic index HitKit (Cellomix). Vinblastine was used as control in the experiments.
Above this concentration a decrease in the number of mitotic cells is observed which correlates with a decrease in the total number of cells.

A549 = assay: 72-h MTT cytotoxicity assay, A549; type: cell-based, human; details: Homo sapiens
Experimental: (§1) Selected compounds from the above examples were subjected to a standard cellular proliferation assay using a range of different human tumour cell lines. Standard 72-h MTT (thiazolyl blue; 3-{4,5-dimethylthiazol-2-yl}-2,5-diphenyltetrazolium bromide) assays were performed (Haselsberger, K.; Peterson, D. C.; Thomas, D. G.; Darling, J. L. Anti Cancer Drugs 1996, 7, 331-8; Loveland, B. E.; Johns, T. G.; Mackay, I. R.; Vaillant, F.; Wang, Z. X.; Hertzog, P. J. Biochemistry International 1992, 27, 501-10). Human tumour cell lines were obtained from the ATCC (American Type Culture Collection, 10801 University Boulevard, Manessas, Va. 20110-2209, USA).

DU145 = assay: 72-h MTT cytotoxicity assay, DU145; type: cell-based; details: Homo sapiens, DU-145, read-out: 72-h Cytotoxicity IC 50 DU145; Table 3, 72-h MTT
Experimental: as §1

Saos-2 = assay: 72-h MTT cytotoxicity assay, Saos-2; type: cell-based; details: Homo sapiens, SAOS-2, read-out: 72-h Cytotoxicity IC 50 Saos-2; Table 3, 72-h MTT
Experimental: as §1

PKCa = molecular target: T1, PKCa (Homo sapiens, UniProt P17252); assay: PKCα kinase assay (Histone 3 phosphorylation); type: biochemical; details: Table 1
T1 construct: 6×His (C); made in house; host or cells: Sf9 insect cells (baculovirus)
Experimental: PKCα kinase activity may be measured by the incorporation of radio-labeled phosphate in Histone 3, as described. The reaction mixture (total volume 65 μl) consist of 50 mM Tris-HCl, 1 mM Calcium acetate, 3 mM DTT, 0.03 mg/ml Phosphatidylserine, 2.4 μg/ml PMA, 0.04% NP40, 12 mM Mg/Cl, purified PKCα-100 ng, Histone 3, 0.2 mg/ml, 100 μM ATP, 0.2 μCi {γ-^32P}-ATP. The reaction is carried over 15 min at 37° C. in microplate shaker and is stopped by adding 10 μl 75 mM orthophosphoric acid and placing the plate on ice. 50 μl of the reaction mixture is transferred onto P81 filterplate and after washing off the free radioactive phosphate (3 times with 200 μl 75 mM orthophosphoric acid per well) 50 μl of scintillation liquid (Microscint 40) were added to each well and the radioactivity is measured on Scintillation counter (Topcount, HP).

HeLa = assay: 72-h MTT cytotoxicity assay, HeLa; type: cell-based; details: Homo sapiens, read-out: 72-h Cytotoxicity IC 50 HeLa, Table 3, 72-h MTT
Experimental: as §1

MCF-7 = assay: 72-h MTT cytotoxicity assay, MCF-7; type: cell-based; details: Homo sapiens, MCF7, read-out: 72-h Cytotoxicity IC 50 MCF-7; Table 3, 72-h MTT
Experimental: as §1

ERK-2 = ERK-2 (Homo sapiens, UniProt P28482); assay: ERK-2 kinase assay (kinase panel); type: biochemical; details: Table 1
SAPK2a = SAPK2a (Homo sapiens, UniProt Q16539); assay: SAPK2a kinase assay (kinase panel); type: biochemical; details: Table 1
S6 = S6 kinase assay (kinase panel); type: biochemical; details: Table 1
CDK1/cyclin B = molecular target: T2, CDK1/cyclin B (Homo sapiens, UniProt P06493); assay: CDK1/cyclin B kinase assay (GST-Rb phosphorylation); type: biochemical; details: Table 1
T2 construct: His; made in house; host or cells: Sf9 insect cells (baculovirus)

AGS = assay: 72-h MTT cytotoxicity assay, AGS; type: cell-based; details: Homo sapiens, read-out: 72-h Cytotoxicity IC 50 AGS, Table 3, 72-h MTT
Experimental: as §1

CDK2/cyclin E = molecular target: T3, CDK2/cyclin E (Homo sapiens, UniProt P24941); assay: CDK2/cyclin E kinase assay (GST-Rb phosphorylation); type: biochemical;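 also: enzyme source: His-tagged CDK2/cyclin E co-expressed in Sf9 insect cells via baculovirus, then purified by metal-chelate chromatography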
T3 construct: His; made in house; host or cells: Sf9 insect cells (baculovirus)

CDK4/cyclin D1 = CDK4/cyclin D1 (Homo sapiens, UniProt P11802); assay: biochemical
human tumour cell lines = assay: Cell-based assays (anti-proliferative)
Text: These assays including methods for their performance are described in more detail in Example 23. Using such cell line and enzymes assays it may be determined whether a compound is anti-proliferative in the context of the present invention.
as §1

[3] = Table 4, additional data for cytotoxicity assay using the A549 cell line, read-out: A549
[4] = A549, 72 h, read-out: 72-h Cytotoxicity IC 50 A549, Table 3, 72-h MTT

Chain of ERK-2 (P28482 whole entry, species assumed): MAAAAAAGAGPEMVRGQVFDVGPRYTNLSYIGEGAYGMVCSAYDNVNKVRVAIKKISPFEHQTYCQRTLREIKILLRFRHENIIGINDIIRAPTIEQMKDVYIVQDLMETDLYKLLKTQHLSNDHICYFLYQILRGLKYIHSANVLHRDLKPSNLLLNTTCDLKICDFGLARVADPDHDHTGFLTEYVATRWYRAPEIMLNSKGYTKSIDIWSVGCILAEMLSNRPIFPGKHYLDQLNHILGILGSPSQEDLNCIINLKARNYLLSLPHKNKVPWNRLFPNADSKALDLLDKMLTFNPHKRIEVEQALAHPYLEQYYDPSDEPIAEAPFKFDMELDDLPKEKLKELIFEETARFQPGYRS
Chain of SAPK2a (Q16539 whole entry, species assumed): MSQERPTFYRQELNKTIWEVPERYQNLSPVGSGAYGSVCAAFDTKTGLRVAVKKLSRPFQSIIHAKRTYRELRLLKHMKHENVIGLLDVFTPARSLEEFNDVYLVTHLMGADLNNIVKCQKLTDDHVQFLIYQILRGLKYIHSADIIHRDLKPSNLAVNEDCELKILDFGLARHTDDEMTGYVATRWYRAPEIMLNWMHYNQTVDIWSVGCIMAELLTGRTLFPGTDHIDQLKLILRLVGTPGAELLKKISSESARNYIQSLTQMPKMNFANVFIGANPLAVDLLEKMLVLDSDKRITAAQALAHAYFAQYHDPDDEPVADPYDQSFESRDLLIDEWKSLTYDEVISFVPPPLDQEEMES
T2 sequence (P06493 whole entry, species assumed): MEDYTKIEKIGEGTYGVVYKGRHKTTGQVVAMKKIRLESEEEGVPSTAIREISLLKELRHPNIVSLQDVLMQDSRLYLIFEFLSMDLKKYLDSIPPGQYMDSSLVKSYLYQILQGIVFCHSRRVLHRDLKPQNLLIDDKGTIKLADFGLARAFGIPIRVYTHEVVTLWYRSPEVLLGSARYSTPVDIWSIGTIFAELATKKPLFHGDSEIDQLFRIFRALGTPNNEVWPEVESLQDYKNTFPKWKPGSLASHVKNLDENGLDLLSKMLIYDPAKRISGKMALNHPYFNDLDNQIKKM
T2 sequence (P14635 whole entry partner, species assumed): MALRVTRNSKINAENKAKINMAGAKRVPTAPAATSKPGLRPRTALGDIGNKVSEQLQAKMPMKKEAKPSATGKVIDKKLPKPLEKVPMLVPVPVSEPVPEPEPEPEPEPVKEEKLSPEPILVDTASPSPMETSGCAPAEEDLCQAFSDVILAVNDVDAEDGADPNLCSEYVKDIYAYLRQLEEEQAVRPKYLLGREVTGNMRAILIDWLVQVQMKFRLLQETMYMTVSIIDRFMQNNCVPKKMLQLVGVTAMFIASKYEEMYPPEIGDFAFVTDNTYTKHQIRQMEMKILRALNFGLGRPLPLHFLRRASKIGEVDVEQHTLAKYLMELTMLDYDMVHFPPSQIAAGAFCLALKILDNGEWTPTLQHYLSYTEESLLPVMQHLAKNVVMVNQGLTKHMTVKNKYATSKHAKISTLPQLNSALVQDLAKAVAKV
Chain of CDK4/cyclin D1 (P11802 whole entry, species assumed): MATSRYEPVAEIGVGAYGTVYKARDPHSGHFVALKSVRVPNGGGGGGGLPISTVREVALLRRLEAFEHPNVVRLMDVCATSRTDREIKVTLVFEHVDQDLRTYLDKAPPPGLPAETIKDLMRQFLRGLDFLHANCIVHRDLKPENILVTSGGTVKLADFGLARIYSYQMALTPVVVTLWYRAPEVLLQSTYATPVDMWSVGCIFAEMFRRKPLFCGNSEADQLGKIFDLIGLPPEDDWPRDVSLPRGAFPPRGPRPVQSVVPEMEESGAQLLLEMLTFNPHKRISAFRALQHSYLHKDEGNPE
Chain of CDK4/cyclin D1 (P24385 whole entry partner, species assumed): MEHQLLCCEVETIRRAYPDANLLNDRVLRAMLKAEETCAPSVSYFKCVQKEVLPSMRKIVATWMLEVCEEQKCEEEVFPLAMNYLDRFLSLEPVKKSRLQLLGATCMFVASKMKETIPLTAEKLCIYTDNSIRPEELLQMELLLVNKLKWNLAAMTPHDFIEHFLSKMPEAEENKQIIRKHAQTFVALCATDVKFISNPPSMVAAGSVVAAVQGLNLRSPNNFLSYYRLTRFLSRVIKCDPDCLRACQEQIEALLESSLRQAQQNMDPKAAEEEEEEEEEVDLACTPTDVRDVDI

IC50 (PKCa)	IC50 (ERK-2)	IC50 (SAPK2a)	IC50 (S6)	IC50 (CDK1/cyclin B)	Structure (SMILES)	IC50 (A549; [3])	IC50 (DU145)	IC50 (Saos-2)	IC50 (A549; [4])	IC50 (HeLa)	IC50 (MCF-7)	IC50 (AGS)	other results
–	–	–	–	–	Cc1nc(C)c(-c2ccnc(Nc3ccc(C(F)(F)F)cc3)n2)s1 [Compound 28, {4-(2,4-Dimethyl-thiazol-5-yl)-pyrimidin-2-yl}-(4-trifluoromethyl-phenyl)-amine]	3.5 µM	–	–	–	–	–	–	mitotic arrest and induction of apoptosis [1]: mitotic arrest and induction of apoptosis; also recorded: accumulation of mitotic cells and appearance of apoptotic cells was observed; induction of programmed cell death, cytoplasmic vaculation [2]: Extensive cytoplasmic vaculation is observed; maximum percentage of mitotic cells (A549 cells): 17%
> 20 µM	> 20 µM	> 20 µM	> 20 µM	0.1 µM	Cc1nc(C)c(-c2ccnc(Nc3cccc([N+](=O)[O-])c3)n2)s1 [Compound 12, {4-(2,4-Dimethyl-thiazol-5-yl)-pyrimidin-2-yl}-(3-nitro-phenyl)-amine]	0.2 µM	1 ± 0.1 µM	1.4 ± 0.3 µM	1.5 ± 0.3 µM	1.2 ± 0.2 µM	1.7 ± 0.1 µM	1 ± 0.2 µM	–
–	–	–	–	–	Cc1nc(C)c(-c2ccnc(Nc3ccc(Br)cc3)n2)s1 [Compound 31, (4-Bromo-phenyl)-{4-(2,4-dimethyl-thiazol-5-yl)-pyrimidin-2-yl}-amine]	0.3 ± 0.05 µM	–	–	–	–	–	–	IC50 (CDK2/cyclin E; Table 2, further results for CDK2/cyclin E inhibition, read-out: CDK2/cyclin E): 0.2 µM; melting point: 173 to 175 °C
> 20 µM	> 20 µM	> 20 µM	> 20 µM	> 20 µM	Cc1nc(C)c(-c2ccnc(Nc3ccc(Cl)cc3)n2)s1 [Compound 6, (4-Chloro-phenyl)-{4-(2,4-dimethyl-thiazol-5-yl)-pyrimidin-2-yl}-amine]	–	–	–	–	–	–	–	IC50 (CDK2/cyclin E; CDK2/cyclin E, Table 2, further results for CDK2/cyclin E inhibition): 5 ± 9 µM; IC50 (CDK2/cyclin E; Kinase assay IC50 CDK2/cyclin E, Table 1): 9 ± 12 µM; IC50 (CDK4/cyclin D1): 0.5 ± 0.5 µM
–	–	–	–	–	Cc1nc(C)c(-c2ccnc(Nc3ccc(I)cc3)n2)s1 [Compound 34, {4-(2,4-Dimethyl-thiazol-5-yl)-pyrimidin-2-yl}-(4-iodo-phenyl)-amine]	0.02 µM	–	–	–	–	–	–	anti-proliferative effect (in words) (human tumour cell lines): even more effective anti-proliferative agent
> 20 µM	2.5 µM	> 20 µM	1 µM	0.2 µM	Cc1nc(C)c(-c2ccnc(Nc3ccc(F)cc3)n2)s1 [Compound 21, {4-(2,4-Dimethyl-thiazol-5-yl)-pyrimidin-2-yl}-(4-fluoro-phenyl)-amine]	6.3 µM	4.3 ± 0.2 µM	8.5 ± 1.6 µM	5.4 ± 0.4 µM	3.2 ± 0.8 µM	9.9 ± 0.4 µM	4.2 ± 0.3 µM	–

— US6699854B2, “Anti-cancer compounds” (Cyclacel Limited, priority 2000, dated 2004)
